Reference: patent US11207312B2, “Metallo-beta-lactamase inhibitors and methods of use thereof” (priority 2017, dated 2021)

Tests used:
[1] = tested on: P. aeruginosa MB9798 (efflux+, IMP-1 plasmid); conditions: for MB9798 MITC95 P. aeruginosa uM Efflux WT: efflux + (MB9798) strain, imipenem at 2 μg/mL, in the presence of a class A, C, D serine β-lactamase inhibitor closely related to relebactam; for Efflux ratio: fold difference between efflux+ (MB9798) and efflux− (MB9799) strains
Procedure, shortened: (§1)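 Isogenic P. aeruginosa PAO1 strains (efflux+ and multiple-efflux-pump-disrupted) carrying plasmid IMP-1, with inducible AmpC, tested by broth microdilution. Imipenem and/or ceftazidime fixed, usually at CLSI breakpoint, plus fixed class A/C β-lactamase inhibitor; titrated MBL inhibitor concentration restoring susceptibility recorded and compared between strains as efflux fold difference.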

[2] = molecular target: VIM-2 (Escherichia coli, UniProt Q5U7L7); experiment: biochemical; conditions: CCF2-FA fluorescence assay; read-out: VIM2 IC50
[3] = tested on: Serratia marcescens expressing IMP-1 (CL5741); format: cell-based; conditions: with imipenem 1 μg/ml; 95% inhibition of bacterial growth
Procedure, shortened: (§2)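 Clinical MBL-producing strains grown overnight at 35° C, diluted 1:100 into CAMHB, then exposed to test compound with imipenem at 1 μg/ml for 22–24 h at 35° C. Absorbance read-out; MITC95 is the lowest compound concentration giving 95% growth inhibition with imipenem.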

[4] = tested on: Klebsiella pneumoniae expressing VIM-1 (IHMA599644); format: cell-based; conditions: with imipenem 1 μg/ml; 95% inhibition of bacterial growth
Procedure, shortened: as §2

[5] = tested on: Escherichia coli expressing NDM-1 (CLB30016); format: cell-based; conditions: with imipenem 1 μg/ml; 95% inhibition of bacterial growth
Procedure, shortened: as §2

[6] = molecular target: VIM-1 (Pseudomonas aeruginosa (strain ATCC 15692 / DSM 22644 / CIP 104116 / JCM 14847 / LMG 12228 / 1C / PRS 101 / PAO1), UniProt A0A0F7KYQ8); experiment: biochemical; conditions: CCF2-FA fluorescence assay, 2 hours at 25° C.; read-out: VIM1 IC50
Procedure, shortened: (§3)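 IC50s come from 4-parameter fits of inhibition versus inhibitor concentration, tested from 20 μM down to 0.00063 μM. Enzyme, CCF2-FA (1.25 μM) and inhibitor react 2 h at 25° C, pH 7, with 10 μM ZnSO4 and 0.005% Tween-20.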

[7] = molecular target: IMP-1 (Serratia marcescens, UniProt P52699); experiment: biochemical; conditions: CCF2-FA fluorescence assay, 2 hours at 25° C.; read-out: IMP1 IC50
Procedure, shortened: as §3

[8] = molecular target: NDM-1 (Klebsiella pneumoniae, UniProt C7C422); experiment: biochemical; format: biochemical; conditions: CCF2-FA fluorescence assay, 2 hours at 25° C.
Procedure, shortened: as §3

[9] = tested on: P. aeruginosa MB9799 (efflux-, IMP-1 plasmid); format: cell-based, Pseudomonas aeruginosa; conditions: efflux − (MB9799) strain; imipenem at 2 μg/mL; in the presence of a class A, C, D serine β-lactamase inhibitor closely related to relebactam
Procedure, shortened: as §1

Chain of NDM-1 (C7C422 whole entry, looked up, species assumed): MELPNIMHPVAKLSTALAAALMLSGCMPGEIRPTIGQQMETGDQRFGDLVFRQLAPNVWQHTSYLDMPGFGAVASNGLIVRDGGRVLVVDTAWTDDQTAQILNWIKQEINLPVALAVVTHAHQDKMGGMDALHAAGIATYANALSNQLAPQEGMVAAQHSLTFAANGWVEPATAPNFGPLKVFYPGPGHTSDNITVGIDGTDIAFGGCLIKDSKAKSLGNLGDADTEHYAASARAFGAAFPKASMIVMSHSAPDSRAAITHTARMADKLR
Chain of IMP-1 (P52699 whole entry, looked up, species assumed): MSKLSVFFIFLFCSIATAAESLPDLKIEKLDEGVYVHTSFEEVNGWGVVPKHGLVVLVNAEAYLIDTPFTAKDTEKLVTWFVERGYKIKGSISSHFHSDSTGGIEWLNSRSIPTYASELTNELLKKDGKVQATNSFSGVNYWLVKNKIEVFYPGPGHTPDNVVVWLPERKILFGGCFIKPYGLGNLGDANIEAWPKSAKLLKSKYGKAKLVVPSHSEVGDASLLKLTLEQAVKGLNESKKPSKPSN

| SMILES | MB9798 MITC95 P. aeruginosa uM Efflux WT [1] [µM] | Efflux ratio [1] | IC50 [2] [nM] | CL5741 S. marcescens MITC95 IMP [3] [µM] | IHMA599644 K. pneumoniae MITC95 VIM [4] [µM] | CLB30016 E. coli MITC95 NDM [5] [µM] | IC50 [6] [nM] | IC50 [7] [nM] | IC50 [8] [nM] | MB9799 MITC95 P. aeruginosa uM Efflux Mutant [9] [µM] |
| --- | --- | --- | --- | --- | --- | --- | --- | --- | --- | --- |
| NCCN1CCN(c2ccc(S(=O)(=O)NC[C@H](O)CN)c(S(N)(=O)=O)c2-c2nnn[nH]2)CC1 [Example 51, (R)-N1-(3-amino-2-hydroxypropyl)-4-(4-(2-aminoethyl)piper-azin-1-yl)-3-(1H-tetrazol-5-yl)benzene-1,2-disulfonamide] | 0.78 | 2.00 | 3.07 | 0.39 | 0.78 | 0.78 | 0.29 | 1.92 | 1.4 | 0.39 |
| NS(=O)(=O)c1c(S(=O)(=O)N[C@@H]2CCNC2)ccc(N2CCC3(CC2)CNC3)c1-c1nnn[nH]1 [Example 52, (R)-N1-(pyrrolidin-3-yl)-4-(2,7-diazaspiro[3.5]no-nan-7-yl)-3-(1H-tetrazol-5-yl)benzene-1,2-disulfonamide] | 0.78 | 1.00 | 8.18 | 1.56 | 1.56 | 0.78 | 0.5 | 3.06 | 0.48 | 0.78 |
| NS(=O)(=O)c1c(S(=O)(=O)C2CNC2)ccc(N2CCN(CCCO)CC2)c1-c1nnn[nH]1 [Example 53, 6-(azetidin-3-ylsulfonyl)-3-[4-(3-hydroxypropyl)piperazin-1-yl]-2-(1H-tetrazol-5-yl)benzenesulfonamide] | 6.25 | 4.00 | 35.5 | 0.39 | 3.13 | 0.39 | 25.1 | 7.81 | 8.79 | 1.56 |
| NS(=O)(=O)c1c(S(=O)(=O)C2CNC2)ccc(N2CCN(CCO)CC2)c1-c1nnn[nH]1 [Example 54, 6-(azetidin-3-ylsulfonyl)-3-[4-(2-hydroxyethyl)piperazin-1-yl]-2-(1H-tetrazol-5-yl)benzenesulfonamide] | 6.25 | 4.00 | 69.5 | 0.39 | 6.25 | 0.39 | 66.1 | 21.9 | 16.7 | 1.56 |
| NS(=O)(=O)c1c(S(=O)(=O)C2CNC2)ccc(N2C[C@H](O)C[C@@H](O)C2)c1-c1nnn[nH]1 [Example 55, 6-(azetidin-3-ylsulfonyl)-3-[(3R,5R)-3,5-dihydroxypiperidin-1-yl]-2-(1H-tetrazol-5-yl)benzenesulfonamide] | 100.00 | 16.00 | 145 | 12.50 | 12.50 | 1.56 | 62.3 | 200 | 51.5 | 6.25 |
| NS(=O)(=O)c1c(S(=O)(=O)C2CNC2)ccc(N2CCC(CCO)CC2)c1-c1nnn[nH]1 [Example 56, 6-(azetidin-3-ylsulfonyl)-3-[4-(2-hydroxyethyl)piperidin-1-yl]-2-(1H-tetrazol-5-yl)benzenesulfonamide] | 6.25 | 4.00 | 0.82 | 3.13 | 6.25 | 6.25 | 0.25 | 0.45 | 0.76 | 1.56 |
| NS(=O)(=O)c1c(S(=O)(=O)C2CNC2)ccc(N2CCCC(CO)C2)c1-c1nnn[nH]1 (centres unmarked) [Example 57, 6-(azetidin-3-ylsulfonyl)-3-[3-(hydroxymethyl)piperidin-1-yl]-2-(1H-tetrazol-5-yl)benzenesulfonamide] | 25.00 | 15.99 | 1.87 | 3.13 | 12.50 | 3.13 | 1.44 | 4.38 | 2.48 | 1.56 |
| NS(=O)(=O)c1c(S(=O)(=O)C2CNC2)ccc(N2CCC(CO)CC2)c1-c1nnn[nH]1 [Example 58, 6-(azetidin-3-ylsulfonyl)-3-[4-(hydroxymethyl)piperidin-1-yl]-2-(1H-tetrazol-5-yl)benzenesulfonamide] | 6.25 | 4.00 | 1.67 | 6.25 | 6.25 | 3.13 | 0.42 | 0.85 | 1.03 | 1.56 |
| CC1(O)CCCN(c2ccc(S(=O)(=O)C3CNC3)c(S(N)(=O)=O)c2-c2nnn[nH]2)C1 (centres unmarked) [Example 59, 6-(azetidin-3-ylsulfonyl)-3-(3-hydroxy-3-methylpiperidin-1-yl)-2-(1H-tetrazol-5-yl)benzenesulfonamide] | 50.00 | 16.00 | 2.18 | 6.25 | 6.25 | 6.25 | 1.84 | 8.38 | 3.22 | 3.13 |
| NS(=O)(=O)c1c(S(=O)(=O)C2CNC2)ccc(N2CCC[C@H](O)C2)c1-c1nnn[nH]1 [Example 60, 6-(azetidin-3-ylsulfonyl)-3-[(3S)-3-hydroxypiperidin-1-yl]-2-(1H-tetrazol-5-yl)benzenesulfonamide] | 12.50 | 4.00 | 2.67 | 3.13 | 6.25 | 3.13 | 1.44 | 6.05 | 4.23 | 3.13 |
| NS(=O)(=O)c1c(S(=O)(=O)C2CNC2)ccc(N2CC[C@H](CO)[C@H](F)C2)c1-c1nnn[nH]1 [Example 61, 6-(azetidin-3-ylsulfonyl)-3-[(3S,4R)-3-fluoro-4-(hydroxymethyl)piperidin-1-yl]-2-(1H-tetrazol-5-yl)benzenesulfonamide] | 6.25 | 4.00 | 2.12 | 3.13 | 6.25 | 1.56 | 0.44 | 1.28 | 0.9 | 1.56 |
